# Assay results as given in patent publication US7252944B2, “Methods and compositions for modulating cell proliferation” (IRM LLC, priority 2003, dated 2007).
# Assays:
# wt strain = test: Genome-wide expression analysis, wt strain under salt; format: cell-based, Saccharomyces cerevisiae; settings: 1-NM-PP1 2 μM, 0.9 M NaCl
# Procedure: (§1) Genome-wide expression analysis: Total RNA preparation from hog1-27 strain was performed as described previously (Holstege et al., Cell 95, 717-28, 1998). To monitor the changes in expression caused by specific inhibition of Hog1 kinase, cultures of either wt or hog1-27 were incubated with 1-NM-PP1 (2 μM) for 30 minutes before harvesting (for control, 0.002% DMSO was added). To monitor the effect of osmotic stress, sodium chloride was added into either inhibitor-treated or DMSO-treated cultures to a final concentration of 0.9 M.
# (§2) The preparation of probe and the procedure for microassay experiments was performed as described in the literature. The output files from the scanner were uploaded into the GNF chip informatics server and expression profiles were analyzed using a built-in analysis program, ANOVA. Search for the common transcriptional regulatory elements was done using the promoter database of Saccharomyces cerevisiae at the Cold Spring Harbor Laboratory.
# For DNA micro-array experiments, total RNAs were isolated from both the wt strain and the hog1-as1 mutant strain (hog1-27) treated with DMSO (WT+DMSO, MUT+DMSO), salt and DMSO (WTS+DMSO, MUTS+DMSO), salt and inhibitor (WTS+1-NM-PP1, MUTS+1-NM-PP1). […]
# [1] = tested on: hog1-as1 mutant strain (hog1-27); test: Genome-wide expression analysis, hog1-as1 mutant strain under salt; format: cell-based, Saccharomyces cerevisiae; settings: MUTS+1-NM-PP1 versus MUTS+DMSO; 1-NM-PP1 2 μM, 0.9 M NaCl
# Procedure: as §1, §2
# For DNA micro-array experiments, total RNAs were isolated from both the wt strain and the hog1-as1 mutant strain (hog1-27) treated with DMSO (WT+DMSO, MUT+DMSO), salt and DMSO (WTS+DMSO, MUTS+DMSO), salt and inhibitor (WTS+1-NM-PP1, MUTS+1-NM-PP1). For each experiment, RNA samples were prepared in duplicates, followed by the preparation of the corresponding biotinylated cRNA probes and hybridized to Yeast Genome S98 arrays (Affymetrix). Two expression profiles were first examined between duplicate samples to ensure reproducibility and the whole procedure was repeated three times. […] To analyze the number of genes affected by salt addition, expression profiles of MUTS+DMSO versus MUT+DMSO were compared by ANOVA (Brazma and Vilo, 2000). The expressions of 874 genes in the mutant strain were changed more than 2.5 fold by the addition of salt. Thus, the analysis covered almost the full complement of genes known to be affected by osmotic stress.
# The effect of inhibition in the hog1-as1 mutant strain was examined by comparing the expression profiles of MUTS+1-NM-PP1 versus MUTS+DMSO. […]
# SHMT = settings: background statement; cited from earlier work
# SHMT1 [2] = test: SHMT1 activity immunoprecipitated from sorbitol-stimulated SHMT1-HEK293 cells; format: cell-based, human; settings: serum-starved SHMT1-HEK293 cells, 0.3 M sorbitol, 15 or 30 min; FIG. 3
# Procedure: Transfection and retroviral infection: SHMT1 (human homolog of yeast Shm2) with a C-terminal myc tag was cloned into pBabe puro plasmid and was transiently transfected into Bosc 23 cells using Effectene (Qiagen) as manufacturer's protocol. The harvested retroviruses was added to 5×10^5 HEK-293 cells for infection. After 48 hours the infected cells were selected in the presence of 2.5 µg/mL of puromycin. SHMT1-HEK293 cells were cultured in DMEM with 10% Bovine Calf Serum (BCS) and were serum-starved for 24 hr in DMEM with 0.5% BCS.
# Transient transfection and SHMT1 assay: MKK6b was cloned into pcDNA6Hismyc B vector (Invitrogen) and MKK6b-EE was further generated using Quick change protocol (Stratagene). Transient transfection of MKK6b-EE into SHMT1-HEK 293 cells was carried using Lipofectamine 2000 (Invitrogen) according to the manufacturer's protocol. […] SHMT1 or phosphorylated form of p38α was detected by immunobloting with either c-myc antibody (Santa Cruz) or phospho-p38 antibody (Cell Signal) using West pico supersignal kit (Pierce).
# Finally, to investigate whether SHMT1 was also an in vivo target of p38 MAP kinase, myc-tagged SHMT1 expressing HEK 293 stable cells were generated. […] SHMT1 was immunoprecipitated at different time points after stimulation and its enzymatic activity was measured as described above. […]
# SHMT1 [3] = target: T1, SHMT1 (Homo sapiens, UniProt P34896); test: SHMT1 enzymatic assay after phosphorylation by p38; format: biochemical; settings: stated as in vitro; FIG. 4
# T1 construct: expressed in transfected cells; host or cells: HEK-293 cells, retroviral infection with pBabe puro and puromycin selection (SHMT1-HEK293)
# T1 sequence (P34896 1-483): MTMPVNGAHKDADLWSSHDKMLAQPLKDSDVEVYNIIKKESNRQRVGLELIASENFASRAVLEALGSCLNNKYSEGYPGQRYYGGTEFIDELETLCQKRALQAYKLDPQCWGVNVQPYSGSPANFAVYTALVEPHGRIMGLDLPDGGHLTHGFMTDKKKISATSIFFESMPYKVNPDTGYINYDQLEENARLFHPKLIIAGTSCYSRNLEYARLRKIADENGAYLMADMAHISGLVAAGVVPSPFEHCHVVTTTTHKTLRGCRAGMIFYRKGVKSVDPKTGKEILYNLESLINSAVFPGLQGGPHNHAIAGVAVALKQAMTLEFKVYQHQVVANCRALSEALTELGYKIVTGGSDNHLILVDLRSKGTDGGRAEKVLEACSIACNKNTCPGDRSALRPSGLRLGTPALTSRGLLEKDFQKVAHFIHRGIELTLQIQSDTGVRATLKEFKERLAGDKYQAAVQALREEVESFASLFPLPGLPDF
# Procedure: (§3) Enzymatic assay for serine hydroxymethyltransferase 2 (Shm2): GST-Shm2 was purified from a yeast strain as described above and its enzymatic activity was measured as described earlier (Krishna Rao et al., Biochem J 343 Pt 1, 257-63, 1999) with minor modifications. To measure the effect of either Hog1-as1 or p38 kinases, Shm2 enzyme was pre-incubated with each kinase in presence of either 1 mM PE-ATP (for Hog1-as1) or 1 mM ATP (for p38) for 30 min at RT before adding to the reaction mixture.
# Transient transfection and SHMT1 assay: MKK6b was cloned into pcDNA6Hismyc B vector (Invitrogen) and MKK6b-EE was further generated using Quick change protocol (Stratagene). Transient transfection of MKK6b-EE into SHMT1-HEK 293 cells was carried using Lipofectamine 2000 (Invitrogen) according to the manufacturer's protocol. Immunoprecipitation procedure for SHMT1 from transfected cells was described previously (Shah and Shokat, Chem Biol 9, 35-47, 2002). SHMT1 enzymatic assay was carried out exactly as Shm2 assay as described above. SHMT1 or phosphorylated form of p38α was detected by immunobloting with either c-myc antibody (Santa Cruz) or phospho-p38 antibody (Cell Signal) using West pico supersignal kit (Pierce).
# Shm2 = target: T2, Shm2 (Saccharomyces cerevisiae, UniProt P37291); test: Enzymatic assay for serine hydroxymethyltransferase 2 (Shm2) after pre-incubation with kinase; format: biochemical; settings: in vitro; pre-incubation with p38α and 1 mM ATP, 30 min RT; FIG. 2D
# T2 construct: made in house; host or cells: Saccharomyces cerevisiae
# T2 sequence (P37291 1-469): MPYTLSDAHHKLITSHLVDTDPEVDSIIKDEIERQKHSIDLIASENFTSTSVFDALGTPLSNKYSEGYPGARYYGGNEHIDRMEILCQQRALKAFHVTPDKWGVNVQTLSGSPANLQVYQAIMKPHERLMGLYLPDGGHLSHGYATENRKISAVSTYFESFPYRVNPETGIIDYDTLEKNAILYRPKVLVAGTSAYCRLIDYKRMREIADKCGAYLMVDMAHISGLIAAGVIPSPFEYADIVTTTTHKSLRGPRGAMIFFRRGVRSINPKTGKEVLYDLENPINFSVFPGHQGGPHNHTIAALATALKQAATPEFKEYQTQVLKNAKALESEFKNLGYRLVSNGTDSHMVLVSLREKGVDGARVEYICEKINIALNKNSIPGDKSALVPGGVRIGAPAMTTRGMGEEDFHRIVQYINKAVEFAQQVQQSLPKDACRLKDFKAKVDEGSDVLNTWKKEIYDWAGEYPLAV
# Procedure: as §3
# To determine Shm2 activity, we measured the transfer of C^14-labeled one-carbon unit as described in the Krishna Rao et al., Biochem J 343 Pt 1, 257-63, 1999. In order to estimate the effect of phosphorylation, Shm2 was pre-incubated with or without Hog 1 kinase, prior to the C^14 transfer reaction.
compound,measurement,setting,value
CC(C)(C)n1nc(Cc2cccc3ccccc23)c2c(N)ncnc21 [1-NM-PP1],number of genes affected by addition of inhibitor,wt strain,11 genes
same,number of genes affected more than 2-fold by addition of inhibitor,[1],96 genes
same,number of genes downregulated by addition of inhibitor,[1],81 genes
same,number of genes upregulated by addition of inhibitor,[1],15 genes
CN(Cc1cnc2nc(N)nc(N)c2n1)c1ccc(C(=O)N[C@@H](CCC(=O)O)C(=O)O)cc1 [methotrexate],inhibition of SHMT activity,SHMT,failed to inhibit SHMT activity significantly
OC[C@@H](O)[C@@H](O)[C@H](O)[C@@H](O)CO [sorbitol],SHMT1 enzymatic activity after sorbitol treatment,SHMT1 [2],decreased activity of SHMT1
p38 MAP kinase: Active p38α MAP kinase purchased from Upstate Inc.; human homolog of Hog1,modulation of SHMT1 enzymatic activity upon phosphorylation,SHMT1 [3],30%
same,modulation of Shm2 enzymatic activity upon phosphorylation,Shm2,~50%
